According to patent US20090275583A1, “ANTIVIRAL COMPOUNDS AND USE THEREOF” (Myriad Genetics, Incorporated, priority 2006, published 2009):

system: HIV-1 laboratory strain, NL4-3; assay: MT-4 cytoprotection assay; type: cell-based; conditions: Human immunodeficiency virus 1, NL43, MT4, 96 h; MT-4 cells, four days incubation, WST-1 readout; read-out: MT4 EC50
Protocol: The HTLV-1 transformed T cell line, MT-4, is highly susceptible to HIV-1 infection. Anti-HIV-1 agents were evaluated in this target cell line by protection from the HIV-induced cytopathic effect. In this assay, viability of both HIV-1 and mock-infected cells was assessed in a […] assay that monitors the ability of metabolically-active cells to reduce the tetrazolium salt WST-1. Cytoprotection by antiviral compounds is indicated by the positive readout of increased WST-1 cleavage.
Briefly, exponentially growing MT-4 cells were mock-infected or batch-infected with the HIV-1 laboratory strain, NL4-3, at a multiplicity of infection of 0.0005. Following a two hour infection, the cells were washed to remove unbound virus and plated in the presence of increasing concentrations of compound. After four days incubation, cytoprotection in the infected cells and compound toxicity in mock-infected cells were analyzed using the WST-1 assay.

SMILES | EC50
C=C(C)[C@@H]1CC[C@]2(C(=O)NCc3cccc(C(=O)NCCCCC(=O)O)c3)CC[C@]3(C)C(CCC4[C@@]5(C)CC[C@H](O)C(C)(C)C5CC[C@]43C)C12 (stereo partly drawn) [Example 1] | 615 nM
C=C(C)[C@@H]1CC[C@]2(C(=O)NCc3cccc(C(=O)NCCCCCCC(=O)O)c3)CC[C@]3(C)C(CCC4[C@@]5(C)CC[C@H](O)C(C)(C)C5CC[C@]43C)C12 (stereo partly drawn) [Example 2] | 940 nM
C=C(C)[C@@H]1CC[C@]2(C(=O)NCc3cccc(C(=O)NCCC(=O)O)c3)CC[C@]3(C)C(CCC4[C@@]5(C)CC[C@H](O)C(C)(C)C5CC[C@]43C)C12 (stereo partly drawn) [Example 3] | 10000 nM
C=C(C)[C@@H]1CC[C@]2(C(=O)NCc3cccc(C(=O)NCCNC(C)=O)c3)CC[C@]3(C)C(CCC4[C@@]5(C)CC[C@H](O)C(C)(C)C5CC[C@]43C)C12 (stereo partly drawn) [Example 4] | 2300 nM
C=C(C)[C@@H]1CC[C@]2(C(=O)NCc3cccc(C(=O)NCCc4cccc(C(=O)O)c4)c3)CC[C@]3(C)C(CCC4[C@@]5(C)CC[C@H](O)C(C)(C)C5CC[C@]43C)C12 (stereo partly drawn) [Example 16] | 210 nM
C=C(C)[C@@H]1CC[C@]2(C(=O)NCc3ccc(C(=O)NCCC(=O)O)cc3)CC[C@]3(C)C(CCC4[C@@]5(C)CC[C@H](O)C(C)(C)C5CC[C@]43C)C12 (stereo partly drawn) [Example 49] | 10000 nM
C=C(C)[C@@H]1CC[C@]2(C(=O)NCc3ccc(C(=O)NCCCCC(=O)O)cc3)CC[C@]3(C)C(CCC4[C@@]5(C)CC[C@H](O)C(C)(C)C5CC[C@]43C)C12 (stereo partly drawn) [Example 50] | 10000 nM
C=C(C)[C@@H]1CC[C@]2(C(=O)NCc3ccc(C(=O)NCCCCCCC(=O)O)cc3)CC[C@]3(C)C(CCC4[C@@]5(C)CC[C@H](O)C(C)(C)C5CC[C@]43C)C12 (stereo partly drawn) [Example 51] | 10000 nM
C=C(C)[C@@H]1CC[C@]2(C(=O)NCc3ccc(C(=O)NCCNC(C)=O)cc3)CC[C@]3(C)C(CCC4[C@@]5(C)CC[C@H](O)C(C)(C)C5CC[C@]43C)C12 (stereo partly drawn) [Example 52] | 10000 nM
C=C(C)[C@@H]1CC[C@]2(C(=O)NCc3ccc(C(=O)NCCNC(=O)OCc4ccccc4)cc3)CC[C@]3(C)C(CCC4[C@@]5(C)CC[C@H](O)C(C)(C)C5CC[C@]43C)C12 (stereo partly drawn) [Example 53] | 10000 nM

system: HIV-1NL4-3; assay: P4-MAGI assay; type: cell-based; conditions: Human immunodeficiency virus 1, 24 h, P4 cells, 24 hour incubation, β-galactosidase expression; read-out: P4-MAGI IC50
From the text: P4 cells were used to test the effects of compounds on virus fusion activity. P4 cells are HIV-1 infectable CD4^+ HeLa cells that bear the bacterial lacZ gene under the control of a minimal HIV-1 LTR. Charneau, et. al., J. Mol. Biol. 241:651-662 (1994). When these cells are infected with HIV-1, β-galactosidase is expressed due to Tat activation of the viral LTR. In this assay, P4 cells were infected with the laboratory adapted strain HIV-1NL4-3 at a multiplicity of infection of 1 in the presence of DEAE-Dextran. Immediately after addition of virus to the cells, increasing concentrations of compound were added to the cells. […] The effect on cell viability (TC50, concentration of compound that inhibits growth by 50%) was determined in mock-infected cells with the WST-1 Cell Proliferation Reagent (Roche Diagnostics).

SMILES | IC50
C=C(C)[C@@H]1CC[C@]2(C(=O)NCc3cccc(C(=O)NCCCCC(=O)O)c3)CC[C@]3(C)C(CCC4[C@@]5(C)CC[C@H](O)C(C)(C)C5CC[C@]43C)C12 (stereo partly drawn) [Example 1] | 49.3 nM
C=C(C)[C@@H]1CC[C@]2(C(=O)NCc3cccc(C(=O)NCCCCCCC(=O)O)c3)CC[C@]3(C)C(CCC4[C@@]5(C)CC[C@H](O)C(C)(C)C5CC[C@]43C)C12 (stereo partly drawn) [Example 2] | 46.7 nM
C=C(C)[C@@H]1CC[C@]2(C(=O)NCc3cccc(C(=O)NCCNC(C)=O)c3)CC[C@]3(C)C(CCC4[C@@]5(C)CC[C@H](O)C(C)(C)C5CC[C@]43C)C12 (stereo partly drawn) [Example 4] | 155 nM
C=C(C)[C@@H]1CC[C@]2(C(=O)NCc3cccc(-c4cccc(C(=O)O)c4)c3)CC[C@]3(C)C(CCC4[C@@]5(C)CC[C@H](O)C(C)(C)C5CC[C@]43C)C12 (stereo partly drawn) [Example 128] | 1000 nM
C=C(C)[C@@H]1CC[C@]2(C(=O)NCc3cccc(-c4cccc(C(=O)N[C@@H](CC(C)C)[C@@H](O)CC(=O)O)c4)c3)CC[C@]3(C)C(CCC4[C@@]5(C)CC[C@H](O)C(C)(C)C5CC[C@]43C)C12 (stereo partly drawn) [Example 129] | 3600 nM
C=C(C)[C@@H]1CC[C@]2(C(=O)NCc3cccc(-c4cccc(C(=O)NCC(=O)OCC)c4)c3)CC[C@]3(C)C(CCC4[C@@]5(C)CC[C@H](O)C(C)(C)C5CC[C@]43C)C12 (stereo partly drawn) [Example 131] | 6500 nM
CC(O)(CN1CCCC1)[C@@H]1CC[C@]2(C(=O)NCc3cccc(C(=O)NCCCCC(=O)O)c3)CC[C@]3(C)C(CCC4[C@@]5(C)CC[C@H](O)C(C)(C)C5CC[C@]43C)C12 (stereo partly drawn) [Example 138] | 550 nM
C=C(C)[C@@H]1CC[C@]2(CC(=O)NCc3cccc(C(=O)NCc4cccc(C(=O)O)c4)c3)CC[C@]3(C)C(CCC4[C@@]5(C)CC[C@H](O)C(C)(C)C5CC[C@]43C)C12 (stereo partly drawn) [Example 142] | 3400 nM
C=C(C)[C@@H]1CC[C@]2(C(=O)NCCc3cccc(C(=O)NC(Cc4ccc(O)cc4)C(=O)OC)c3)CC[C@]3(C)C(CCC4[C@@]5(C)CC[C@H](O)C(C)(C)C5CC[C@]43C)C12 (stereo partly drawn) [Example 144] | 204 nM
C=C(C)[C@@H]1CC[C@]2(C(=O)NCCc3cccc(C(=O)NC(Cc4ccc(O)cc4)C(=O)O)c3)CC[C@]3(C)C(CCC4[C@@]5(C)CC[C@H](O)C(C)(C)C5CC[C@]43C)C12 (stereo partly drawn) [Example 145] | 1100 nM
C=C(C)[C@@H]1CC[C@]2(C(=O)NCc3cc(C(=O)NCc4ccc(N(C)C)cc4)ccc3F)CC[C@]3(C)C(CCC4[C@@]5(C)CC[C@H](O)C(C)(C)C5CC[C@]43C)C12 (stereo partly drawn) [Example 180] | 1000 nM
C=C(C)[C@@H]1CC[C@]2(C(=O)NCc3cc(C(=O)NCc4cccc(C(=O)OC)c4F)ccc3F)CC[C@]3(C)C(CCC4[C@@]5(C)CC[C@H](O)C(C)(C)C5CC[C@]43C)C12 (stereo partly drawn) [Example 182] | 600 nM
C=C(C)[C@@H]1CC[C@]2(C(=O)NCCc3cccc(C(=O)NCC4CCCN4C(=O)OC(C)(C)C)c3)CC[C@]3(C)C(CCC4[C@@]5(C)CC[C@H](O)C(C)(C)C5CC[C@]43C)C12 (stereo partly drawn) [Example 203] | 856 nM
C=C(C)[C@@H]1CC[C@]2(C(=O)NCCc3cccc(C(=O)NCC4CCCN4)c3)CC[C@]3(C)C(CCC4[C@@]5(C)CC[C@H](O)C(C)(C)C5CC[C@]43C)C12 (stereo partly drawn) [Example 204] | 1940 nM
C=C(C)[C@@H]1CC[C@]2(C(=O)NCCc3cccc(C(=O)N4CCC(c5ccccc5)CC4)c3)CC[C@]3(C)C(CCC4[C@@]5(C)CC[C@H](O)C(C)(C)C5CC[C@]43C)C12 (stereo partly drawn) [Example 205] | 1000 nM
C=C(C)[C@@H]1CC[C@]2(C(=O)NCc3cccc(COCc4cccc(C(=O)O)c4)c3)CC[C@]3(C)C(CCC4[C@@]5(C)CC[C@H](O)C(C)(C)C5CC[C@]43C)C12 (stereo partly drawn) [Example 206] | 444 nM

SMILES | IC50
C=C(C)[C@@H]1CC[C@]2(C(=O)NCCc3cccc(C(=O)NC4CCC(C(=O)OC)CC4)c3)CC[C@]3(C)C(CCC4[C@@]5(C)CC[C@H](O)C(C)(C)C5CC[C@]43C)C12 (stereo partly drawn) [Example 207] | 193 nM
C=C(C)[C@@H]1CC[C@]2(C(=O)NCCc3cccc(C(=O)NC4CCC(C(=O)O)CC4)c3)CC[C@]3(C)C(CCC4[C@@]5(C)CC[C@H](O)C(C)(C)C5CC[C@]43C)C12 (stereo partly drawn) [Example 209] | 356 nM
C=C(C)[C@@H]1CC[C@]2(C(=O)NCCc3cccc(C(=O)NCC4(C(=O)O)CC4)c3)CC[C@]3(C)C(CCC4[C@@]5(C)CC[C@H](O)C(C)(C)C5CC[C@]43C)C12 (stereo partly drawn) [Example 219] | 396 nM
C=C(C)[C@@H]1CC[C@]2(C(=O)NCCc3cccc(OCC(O)c4ccc(C(=O)O)cc4)c3)CC[C@]3(C)C(CCC4[C@@]5(C)CC[C@H](O)C(C)(C)C5CC[C@]43C)C12 (stereo partly drawn) [Example 220] | 259 nM
C=C(C)[C@@H]1CC[C@]2(C(=O)NCCc3cccc(C(=O)NCc4ncccc4C(=O)O)c3)CC[C@]3(C)C(CCC4[C@@]5(C)CC[C@H](O)C(C)(C)C5CC[C@]43C)C12 (stereo partly drawn) [Example 228] | 135 nM
C=C(C)[C@@H]1CC[C@]2(C(=O)NCCc3cccc(C(=O)NCc4ccc(OCCCN5CC(C)NC(C)C5)cc4)c3)CC[C@]3(C)C(CCC4[C@@]5(C)CC[C@H](O)C(C)(C)C5CC[C@]43C)C12 (stereo partly drawn) [Example 233] | 70 nM
C=C(C)[C@@H]1CC[C@]2(C(=O)NCCc3cccc(C(=O)NCc4ccc(OCCCN5CCNCC5)cc4)c3)CC[C@]3(C)C(CCC4[C@@]5(C)CC[C@H](O)C(C)(C)C5CC[C@]43C)C12 (stereo partly drawn) [Example 238] | 678 nM
C=C(C)[C@@H]1CC[C@]2(C(=O)NCCc3cccc(C(=O)NCc4ccc(OCCCn5cnc(C(=O)O)c5)c(C(=O)O)c4)c3)CC[C@]3(C)C(CCC4[C@@]5(C)CC[C@H](O)C(C)(C)C5CC[C@]43C)C12 (stereo partly drawn) [Example 247] | 417 nM
C=C(C)[C@@H]1CC[C@]2(C(=O)NCCc3cccc(S(=O)(=O)NCc4cccc(C(=O)OC)c4)c3)CC[C@]3(C)C(CCC4[C@@]5(C)CC[C@H](O)C(C)(C)C5CC[C@]43C)C12 (stereo partly drawn) [Example 248] | 208 nM
C=C(C)[C@@H]1CC[C@]2(C(=O)NCCc3cccc(S(=O)(=O)NCc4cccc(C(=O)O)c4)c3)CC[C@]3(C)C(CCC4[C@@]5(C)CC[C@H](O)C(C)(C)C5CC[C@]43C)C12 (stereo partly drawn) [Example 249] | 143 nM
C=C(C)[C@@H]1CC[C@]2(C(=O)NCc3cc(C(=O)NCCc4ccc(S(N)(=O)=O)cc4)ccc3F)CC[C@]3(C)C(CCC4[C@@]5(C)CC[C@H](O)C(C)(C)C5CC[C@]43C)C12 (stereo partly drawn) [Example 259] | 175 nM
C=C(C)[C@@H]1CC[C@]2(C(=O)NCCc3cc(C(=O)NCc4ccc(C(=O)OC)cn4)ccc3F)CC[C@]3(C)C(CCC4[C@@]5(C)CC[C@H](O)C(C)(C)C5CC[C@]43C)C12 (stereo partly drawn) [Example 260] | 150 nM
C=C(C)[C@@H]1CC[C@]2(C(=O)NCCc3cc(C(=O)NCc4ccc(C(=O)O)cn4)ccc3F)CC[C@]3(C)C(CCC4[C@@]5(C)CC[C@H](O)C(C)(C)C5CC[C@]43C)C12 (stereo partly drawn) [Example 263] | 198 nM
C=C(C)[C@@H]1CC[C@]2(C(=O)NCc3cccc(-c4noc(Cc5ccc(C#N)cc5)n4)c3)CC[C@]3(C)C(CCC4[C@@]5(C)CC[C@H](O)C(C)(C)C5CC[C@]43C)C12 (stereo partly drawn) [Example 276] | 10000 nM
C=C(C)[C@@H]1CC[C@]2(C(=O)NCc3cccc(-c4noc(Cc5ccc(-c6nnn[nH]6)cc5)n4)c3)CC[C@]3(C)C(CCC4[C@@]5(C)CC[C@H](O)C(C)(C)C5CC[C@]43C)C12 (stereo partly drawn) [Example 277] | 10000 nM

same assay, conditions: Human immunodeficiency virus 1, text statement, less than about 100 nm; read-out: P4-MAGI assay IC50

SMILES | IC50
C=C(C)[C@@H]1CC[C@]2(C(=O)NCc3cccc(C(=O)NCCCCCCC(=O)O)c3)CC[C@]3(C)C(CCC4[C@@]5(C)CC[C@H](O)C(C)(C)C5CC[C@]43C)C12 (stereo partly drawn) [Example 2] | < 100 nM
